For assay [1], the system named is meningococcal LOS (TLR4 ligand). Put plainly: Inhibition of meningococcal LOS activity in macrophages (Table 1). In kind it is cell-based, Neisseria meningitidis. The note with it: peptide 2 µg/mL preincubated with meningococcal LOS 30 min at 37 °C, macrophages stimulated overnight; read-out behind the % not stated in Table 1. The procedure: (§1) Human THP-1 (monocyte-like cells) and murine RAW264 macrophages were stimulated with TLR ligands with or without preincubation with PG-1 and its analogs (Table 1). Purified meningococcal CPS samples were freshly dissolved in pyrogen-free sterile H2O at 1 mg/mL stock concentration and vortexed for 2 min. Working CPS concentrations (ranging from 100 µg/mL to 1 µg/mL) were made in duplicate wells using sterile PBS by serial fold dilutions in the 96-well tissue culture plates (Becton Dickinson, Franklin Lakes, NJ, USA) at 50 µL final volumes. PG-1 analogs (2 µg/mL) or PBS equivalent volumes were added to designated wells and preincubated for 30 min at 37 °C. Freshly grown THP-1 cells and murine macrophages, each adjusted to 10^6 cell/mL and 250 µL aliquots, were dispensed into each well at a final cell density of 250 × 10^3 in the designated 96-well plates. The plates were incubated overnight at 37 °C with 5% CO2 and humidity. Supernatants from stimulated cells were harvested and stored at −20 °C until use.
(§2) The cytokines TNFα and IL-1β, released from THP-1 cells, were quantified by DuoSet ELISA (R&D Systems), as previously described. […]
(§3) Freshly grown adherent RAW264 macrophages were harvested, washed and re-suspended in Dulbecco’s complete media, counted and adjusted to 10^6 cell/mL. […] Nitric oxide release was quantified using the Greiss chemical method, as previously described.

Assay [2] concerns meningococcal capsular polysaccharide (CPS) polymers (TLR2 and TLR4 ligand). Put plainly: Inhibition of meningococcal CPS polymer activity in macrophages (Table 1). The class given is cell-based, Neisseria meningitidis. The note with it: peptide 2 µg/mL preincubated with meningococcal CPS polymers 30 min at 37 °C, macrophages stimulated overnight; read-out behind the % not stated in Table 1. The procedure:
as §1, §2, §3

For assay [3], the system named is RAW264 macrophages induced with meningococcal LOS. Put plainly: Nitric oxide release from RAW264 macrophages induced with meningococcal LOS, Greiss method. The class given is cell-based, murine. The note with it: RAW264, LOS doses preincubated with 2 µg/mL peptide 30 min at 37 °C, overnight, Figure 6, result in words. The procedure: Figure 6 PG-1 analogs neutralized meningococcal LOS bioactivity and inhibited nitric oxide release. Nitric oxide was released from murine RAW264 macrophages induced overnight with meningococcal LOS doses pre-incubated with or without 2 µg/mL of PG-1 or its analogs for 30 min at 37 °C. Nitric oxide release was measured by the Greiss method. Error bars represent ± SD from the mean of duplicate measurements. This experiment is representative of two independent experiments.
as §1, with “Freshly grown THP-1 cells and murine macrophages, each adjusted to 10^6 cell/mL and 250 µL aliquots, were dispensed into each well at a final cell density of 250 × 10^3 in the designated 96-well plates. The plates were incubated overnight at 37 °C with 5% CO2 and humidity. Supernatants from stimulated cells were harvested and stored at −20 °C until use.” left out
as §3

Assay [4] deals with RAW264 macrophages induced with meningococcal CPS polymers. Description: Nitric oxide release from RAW264 macrophages induced with meningococcal CPS polymers, Greiss method. In kind it is cell-based, murine. The note with it: RAW264, CPS doses preincubated with 2 µg/mL peptide 30 min at 37 °C, overnight, Figure 7, result in words. The procedure:
Figure 7 PG-1 analogs neutralized meningococcal capsular polysaccharide (CPS) polymer activity and inhibited nitric oxide release. CPS polymers were purified from the endotoxin-deficient serogroup B meningococcal NMB-lpxA mutant designated CPS. Nitric oxide was released from murine RAW264 macrophages induced overnight with doses of meningococcal CPS polymers pre-incubated with or without 2 µg/mL of PG-1 or its analogs for 30 min at 37 °C. Nitric oxide release was measured by the Greiss method. Error bars represent ±SD from the mean of duplicate measurements. This experiment is representative of two independent experiments.
Human THP-1 (monocyte-like cells) and murine RAW264 macrophages were stimulated with TLR ligands with or without preincubation with PG-1 and its analogs (Table 1). Purified meningococcal CPS samples were freshly dissolved in pyrogen-free sterile H2O at 1 mg/mL stock concentration and vortexed for 2 min. […]
as §3

The source of these data is PMC4472440, “Structure-Dependent Immune Modulatory Activity of Protegrin-1 Analogs” (Antibiotics, 2014).

Where no end group is shown, it is not given here.

With “Compound 8: linearized non-cysteine PG-1 analog with alanine replacements (RGGRLAYARRRFAVAVGR-NH2)”, the “LOS activity inhibition (%)” value in assay [1] came out at 33%. The “CPS activity inhibition (%)” value in assay [2] came out at 23%. Further, the “Inhibition of nitric oxide release (neutralization of LOS)” value in assay [3] was “failed to inhibit”. Moreover, the “Inhibition of nitric oxide release (neutralization of CPS)” value in assay [4] is given as “failed to inhibit”.

For the substance “Protegrin-1 (RGGRLCYCRRRFCVCVGR; not fully specified; cysteine pairing not given here) [Compound 1, native porcine PG-1, 18-residue β-hairpin peptide with two disulfide bridges]”, the “LOS activity inhibition (%)” value in assay [1] is reported as 99.9%. Also, the “CPS activity inhibition (%)” value in assay [2] is reported as 99%.
